Laboratory results as given in patent US11390617B2, “Methods of treating non-Hodgkin lymphoma using 2-(2,6-dioxopiperidin-3-yl)-4-((2-fluoro-4-((3-morpholinoazetidin-1-yl)methyl)benzyl)amino)isoindoline-1,3-dione” (Celgene Corporation, priority 2019, dated 2022).

Tests used:
[1] = test system: WSU-DLCL2 DLBCL xenograft tumors; experiment: WSU-DLCL2 (DLBCL) xenograft model; assay type: in vivo, female SCID mice; conditions: 5 days on 2 days off for 3 weeks, single agent
Description: Female 6- to 8-weeks-old CB17 SCID mice were obtained from Charles River Laboratories. Mice were housed in a barrier facility in micro-isolator cages at 10 animals per cage. Mice were fed with Harlan-Teklad LM-485 Mouse/Rat Sterilizable Diet and autoclaved water ad libitum and maintained on a 12 hours light-dark cycle. Animals were acclimatized to the animal housing facility for a period of 7 days before the beginning of the experiment. All animal studies were performed under protocols approved by Institutional Animal Care and Use Committees.
Suspensions of Compound 1 were pared in aqueous 0.5% Methyl Cellulose, 0.25% Tween 80 and 50 mM Citrate pH 3. The formulations were homogenized using a Teflon pestle and mortar (Potter-Elvehjem tissue grinder). For multiday studies, the compound was freshly formulated every day. Compound 1 and vehicle were administered by oral gavage. Rituximab was diluted in 0.9% saline and administered intraperitoneally.
Tumor cells were injected subcutaneously in the flank region above the right hind legs of female CB17 SCID mice. When the tumor volumes reach to approximately 200 mm^3, mice bearing tumors of 150-300 mm^3 were randomly assigned to receive oral doses of vehicle, Compound 1, rituximab or combination of Compound 1 (5 days on and 2 days off for 3 weeks) and rituximab (twice a week) for the duration of the study. Tumor volumes were determined before the initiation of treatment and were considered as the starting volumes. Tumors were measured twice a week for the duration of the study. The long and short axes of each tumor were measured using a digital caliper in millimeters. The tumor volumes were calculated using the formula: width^2×length/2. The tumor volumes were expressed in cubic millimeters (mm^3).
Xenograft data are expressed as mean±SEM. Statistical analyses were performed using GraphPad Prism. […]
Xenograft study was conducted with female SCID mice bearing WSU-DLCL2 DLBCL xenograft tumors. […] Tumors were measured twice a week using calipers and tumor volumes were calculated using the formula of W^2×L/2. […]

[2] = test system: lymphoma cell lines WSU-DLCL2, SU-DHL6, and RL; experiment: NK mediated cell killing (ADCC) with rituximab; assay type: cell-based, human; conditions: NK cells pre-treated with Compound 1 100 nM 18 hours; rituximab 7.5 ug/mL, 4 hours
Description: Commercial purified NK cells isolated from human peripheral blood mononuclear cell (PBMC) were seeded at a concentration of 10^6 cells/mL, cultured in media supplemented with 10 ng/mLrhIL-2 and treated with Compound 1 (100 nM) for 18 hours at 37° C. prior to cytotoxicity assays. Target lymphoma cell lines were added to the pre-treated effector NK cells at a 1:10 (target:effector) cell ratio for WSU-DLCL2 and RL lines or 1:3 for SU-DHL6. At the time of co-culture, rituximab or isotype control at 7.5 ug/mL were added to the media and cells were incubated for 4 hours at 37° C. Then, cells were collected, stained with CD20, Annexin V and 7AAD and analyzed by FACS.

SU-DHL-4 cell line = experiment: Cell proliferation and viability assay using SU-DHL-4 cell line (Cell Titer-Glo); assay type: cell-based; conditions: Homo sapiens, SU-DHL-4, 120 hours
Description: The following exemplary assay uses a DLBCL cell line, for example, the SU-DHL-4 cell line (Deutsche Sammlung von Mikroorganismen und Zellkulturen GmbH [DSMZ]: catalogue number ACC-495) at 120 hours post-treatment. The seeding density for SU-DHL-4 can be optimized to ensure assay linearity in 1536-well plates.
Increasing concentrations (0.5 nM to […]) of Compounds 1, 2, and 3 were each spotted in a 20-point dilution fashion (unevenly spaced data points) via an acoustic dispenser (EDC ATS-100) into an empty 1536-well plate. The DMSO concentration was kept constant for a final assay concentration of 0.1% DMSO. Prior to testing, SU-DHL-4 cells were grown in RPMI-1640 (Roswell Park Memorial Institute-1640) medium with 10% FBS (fetal bovine serum: HyClone) and expanded in culture flasks to provide sufficient amounts of starting material. Cells were then diluted to 500 cells per well in a 5 μL volume, and added directly to the compound-spotted 1536-well plates. Cells were allowed to grow for 120 hours in 5% CO2 at 37° C. At the time when exposure of cells to compound began (t0), initial viable cell number was assessed via Cell Titer-Glo® Luminescent Cell Viability Assay at a 1 vol: 2 vol ratio according to manufacturer's instructions (Promega Corporation, Madison, Wis.) by quantifying the level of luminescence generated by adenosine-5′-triphosphate (ATP) present in viable cells. After 120 hours, cell viability of the treated cells was assessed via Cell Titer-Glo© and read for luminescence. All growth inhibition curves were processed and evaluated using Activity Base (IDBS, Alameda, Calif.). Cell viability IC50 values were calculated using a four parameter logistic model (sigmoidal dose-response model): y=(A+((B−A)/(1+((C/x)^D)))) wherein: A=YMin B=YMax C=EC50 D=Hill slope IC50=the concentration of the compound when Y=50% of DMSO control Y=cell viability measured as luminescence unit, and x=concentration of compound.

## O=C1CC[C@H](N2C(=O)c3cccc(NCc4ccc(CN5CC(N6CCOCC6)C5)cc4F)c3C2=O)C(=O)N1 [Compound 1, (S)-2-(2,6-dioxopiperidin-3-yl)-4-((2-fluoro-4-((3-morpholinoazetidin-1-yl)methyl)benzyl)amino)isoindoline-1,3-dione]
[1]; Compound 1 1 mg/kg oral
  tumor volume reduction: 74%
[1]; Compound 1 3 mg/kg oral
  tumor volume reduction: 86%
[2]
  rituximab cytotoxicity of lymphoma cell lines (NK mediated cell killing, ADCC): able to increase rituximab cytotoxicity of lymphoma cell lines
SU-DHL-4 cell line
  IC50: < 200 nM
